Test results: patent US20220289794A1, “SYNTHETIC ANTIMICROBIAL PEPTIDES” (priority 2019, published 2022)
Read-outs that look alike come from different tables or passages of the source.

Legend:
[1] = system: Enterococcus faecium ATCC 700221; assay: microbe, parasite or virus in culture; conditions: ATCC700221
[2] = system: MRSA; assay: microbe, parasite or virus in culture; conditions: Staphylococcus aureus
[3] = system: Bacillus subtilis (ATCC-6633); assay: microbe, parasite or virus in culture; conditions: ATCC6633
[4] = system: KPC; assay: microbe, parasite or virus in culture; conditions: Klebsiella pneumoniae, ATCCBAA1705, read-out: MIC Klebsiella pneumoniae (ATCC BAA-1705)
[5] = system: Enterococcus faecium ATCC 27270; assay: microbe, parasite or virus in culture; conditions: ATCC27270
[6] = system: Streptococcus pneumoniae ATCC 51938; assay: microbe, parasite or virus in culture; conditions: ATCC51938
[7] = system: E. coli; assay: microbe, parasite or virus in culture; conditions: Escherichia coli, ATCC25922, read-out: MIC Escherichia coli (ATCC 25922)
[8] = system: PSA; assay: microbe, parasite or virus in culture; conditions: Pseudomonas aeruginosa, ATCC27883, read-out: MIC Pseudomonas aeruginosa (ATCC 27883)
[9] = system: Staphylococcus aureus ATCC 29213; assay: microbe, parasite or virus in culture; conditions: ATCC29213
[10] = system: Bacillus cereus (ATCC-13061); assay: microbe, parasite or virus in culture; conditions: ATCC13061
[11] = system: Enterococcus faecalis ATCC 51575; assay: microbe, parasite or virus in culture; conditions: ATCC51575
[12] = system: Pseudomonas aeruginosa (PSA, ATCC 27883); assay: microbe, parasite or virus in culture; conditions: ATCC27883, 24 h
[13] = system: Escherichia coli (ATCC 25922); assay: microbe, parasite or virus in culture; conditions: ATCC25922, read-out: E. coli (ATCC 25922) MIC
[14] = system: Enterococcus faecalis ATCC 29212; assay: microbe, parasite or virus in culture; conditions: ATCC29212
[15] = system: Pseudomonas aeruginosa (PSA, ATCC 27883); assay: Synergy checkerboard assay (FIC index); type: cell-based; conditions: Pseudomonas aeruginosa (ATCC 27883), antibiotic alone
[16] = system: Escherichia coli (E. Coli, ATCC 25922); conditions: Escherichia coli (ATCC 25922); antibiotic alone
[17] = system: Streptococcus pneumoniae ATCC 49619; assay: microbe, parasite or virus in culture; conditions: ATCC49619
[18] = system: Methicillin-resistant Staphylococcus aureus MRSA (ATCC BAA-1556); assay: microbe, parasite or virus in culture; conditions: ATCCBAA1556|MRSA, 24 h
[19] = system: Escherichia coli (E. Coli, ATCC 25922); assay: microbe, parasite or virus in culture; conditions: ATCC25922, 24 h
[20] = system: Pseudomonas aeruginosa (ATCC 27883); assay: microbe, parasite or virus in culture; conditions: ATCC27883, read-out: PSA (ATCC 27883 MIC)

C[C@@H](O)[C@H]1C(=O)N2C(C(=O)O)=C(S[C@@H]3CN[C@H](C(=O)N(C)C)C3)[C@H](C)[C@H]12 [Meropenem]
0.5 µg/mL: MIC [5] | MIC [8]
8 µg/mL: MIC [4] | MIC [11]
0.125 µg/mL: MIC [7]
0.25 µg/mL: MIC [3] | MIC [6] | MIC [9] | MIC [17]
1 µg/mL: MIC ([12]; read-out: Pseudomonas aeruginosa (ATCC 27883) MIC, Table 28, IFX-031, antibiotics alone and PHY-MIX (1:1 w/w)) | MIC ([12]; read-out: Pseudomonas aeruginosa (ATCC 27883) MIC, Table 29, [R6W4] (IFX-318), antibiotics alone and PHY-MIX (1:1 w/w)) | MIC ([12]; read-out: Pseudomonas aeruginosa (ATCC 27883) MIC, Table 30, [R5W4K] (IFX-315), antibiotics alone and PHY-MIX (1:1 w/w)) | MIC ([12]; read-out: Pseudomonas aeruginosa (ATCC 27883) MIC, Table 31, [R5W4] (IFX-301), antibiotics alone and PHY-MIX (1:1 w/w)) | MIC ([12]; read-out: Pseudomonas aeruginosa (ATCC 27883) MIC, Table 32, meropenem, IFX-315, their conjugate and Phy-Mix 1:1) | MIC [13] | MIC of antibiotic [15] | MIC of antibiotic ([15]; Table 26) | antibiotic MIC ([15]; Table 27) | MIC of antibiotic [16] | MIC ([19]; read-out: Escherichia coli (ATCC 25922) MIC, Table 29, [R6W4] (IFX-318), antibiotics alone and PHY-MIX (1:1 w/w)) | MIC ([19]; read-out: Escherichia coli (ATCC 25922) MIC, Table 30, [R5W4K] (IFX-315), antibiotics alone and PHY-MIX (1:1 w/w)) | MIC ([19]; read-out: Escherichia coli (ATCC 25922) MIC, Table 31, [R5W4] (IFX-301), antibiotics alone and PHY-MIX (1:1 w/w)) | MIC ([19]; read-out: Escherichia coli (ATCC 25922) MIC, Table 32, meropenem, IFX-315, their conjugate and Phy-Mix 1:1) | MIC [20]
2 µg/mL: MIC ([2]; MRSA) | MIC [14] | MIC ([18]; read-out: MRSA (ATCC BAA-1556) MIC, Table 29, [R6W4] (IFX-318), antibiotics alone and PHY-MIX (1:1 w/w)) | MIC ([18]; read-out: MRSA (ATCC BAA-1556) MIC, Table 30, [R5W4K] (IFX-315), antibiotics alone and PHY-MIX (1:1 w/w)) | MIC ([18]; read-out: MRSA (ATCC BAA-1556) MIC, Table 31, [R5W4] (IFX-301), antibiotics alone and PHY-MIX (1:1 w/w)) | MIC ([18]; read-out: MRSA (ATCC BAA-1556) MIC, Table 32, meropenem, IFX-315, their conjugate and Phy-Mix 1:1)
4 µg/mL: MIC ([2]; ATCCBAA1556 / MRSA, read-out: MIC MRSA (ATCC BAA-1556)) | MIC [10]
64 µg/mL: MIC [1]
